Results on twelve compounds are retold here after patent US10005750B2, “Developing potent urate transporter inhibitors: compounds designed for their uricosuric action” (priority 2010, dated 2018).

Molecules are shown by their SMILES. Where only a bound is given, the exact number is not on record here.

By IC50 is commonly meant the concentration needed to halve the response being measured. A low value points to greater potency.

Assay [1] deals with T1, hURAT1 (Homo sapiens, UniProt Q96S37).
T1 sequence (Q96S37 1-553): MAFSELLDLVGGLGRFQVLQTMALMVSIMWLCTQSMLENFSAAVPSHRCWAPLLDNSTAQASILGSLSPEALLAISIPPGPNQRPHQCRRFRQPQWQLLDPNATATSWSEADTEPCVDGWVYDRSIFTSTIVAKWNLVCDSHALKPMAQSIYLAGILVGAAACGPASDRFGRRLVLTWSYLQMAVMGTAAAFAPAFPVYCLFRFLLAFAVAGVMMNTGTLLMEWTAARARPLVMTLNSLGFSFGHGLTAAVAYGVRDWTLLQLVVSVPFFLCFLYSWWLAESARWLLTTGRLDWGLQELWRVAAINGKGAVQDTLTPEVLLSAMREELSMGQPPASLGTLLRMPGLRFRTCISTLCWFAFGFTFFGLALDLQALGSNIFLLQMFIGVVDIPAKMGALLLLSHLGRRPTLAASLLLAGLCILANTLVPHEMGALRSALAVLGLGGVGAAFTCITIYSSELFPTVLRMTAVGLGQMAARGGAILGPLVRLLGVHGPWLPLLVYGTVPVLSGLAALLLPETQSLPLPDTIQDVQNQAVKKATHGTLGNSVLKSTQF
In words: [14C]urate uptake inhibition in Xenopus oocytes expressing hURAT1. It counts as cell-based. Also noted: expressed in transfected cells; host or cells: Xenopus laevis oocytes injected with capped cRNA. The following applies: 60 min; for IC50: 14C-uric acid uptake; for 14C-urate transport inhibition: test compound at 50 μM. As for the experimental part:
cRNA synthesis and oocyte injection. The hURATv1 (pCMV6-XL5) plasmids were linearized with XbaI and hURAT2 (pCMV-SPORT6) plasmids were linearized with XhoI. The cRNAs were synthesized in vitro with T7 RNA polymerase (for hURATv1) or SP6 RNA polymerase (for hURAT2) using mMessage mMachine® High yield capped RNA transcription kit (Ambion, Austin, Tex., USA). The polyadenylation of cRNA at 3′-end was performed using poly(A) tailing kit (Ambion, Austin, Tex., USA). Female Xenopus frogs (African clawed frogs; 95-120 g) were purchased from Sato Zoushoku (Chiba, Japan) and nurtured in tap water (19±3° C.). […] The oocytes were washed in Ca^2+-free solution and transferred to ND96 solution (96.0 mM NaCl, 2.0 mM KCl, 1.0 mM CaCl2, 1.0 mM MgCl2.6H2O and 5.0 mM HEPES, pH 7.5). Defolliculated Xenopus oocytes (stage 1V and V) were injected with 25 ng of capped cRNA and incubated at 18° C. for 2-3 days in ND96 solution containing gentamicin (50 μg/ml) and 2.5 mM sodium pyruvate.
Inhibition study. After incubation of cRNA-injected oocytes (2-3 days), uptake experiments were performed at room temperature in ND96 solution. […] The uptake was terminated by washing the oocytes with ice-cold uptake solution (5 times @ 1.0 ml each) after 60 min of incubation. The oocytes were solubilized with 5% (w/v) SDS and the radioactivity content determined using liquid scintillation counter (Aloka 3100; Aloka Co., Ltd. Tokyo, Japan). The urate uptake by non-injected (control) oocytes was subtracted from oocytes expressing hURAT1, hURATv1 or hURAT2. The data are presented and reported as the % inhibition. The IC50 data were conducted using different compound concentrations.
We conducted a general screen where ^14C-uric acid ([…]) and test compound (50 μM) were placed in the extracellular fluid. Radioactivity inside the oocyte was analyzed after 60 min. […] The IC50 values were generated using a sigmoidal dose-response (variable slope) relationship.

For assay [2], the system named is hURAT1, hURAT2, and hURATv1. In words: combined % inhibition of urate transport in oocytes expressing hURAT1, hURAT2 or hURATv1. It counts as cell-based, human. The following applies: sum over the three transporters. As for the experimental part: cRNA synthesis and oocyte injection. The hURATv1 (pCMV6-XL5) plasmids were linearized with XbaI and hURAT2 (pCMV-SPORT6) plasmids were linearized with XhoI. The cRNAs were synthesized in vitro with T7 RNA polymerase (for hURATv1) or SP6 RNA polymerase (for hURAT2) using mMessage mMachine® High yield capped RNA transcription kit (Ambion, Austin, Tex., USA). The polyadenylation of cRNA at 3′-end was performed using poly(A) tailing kit (Ambion, Austin, Tex., USA). Female Xenopus frogs (African clawed frogs; 95-120 g) were purchased from Sato Zoushoku (Chiba, Japan) and nurtured in tap water (19±3° C.). Oocytes (1.23±0.10 mg/oocyte) isolated from Xenopus laevis were defolliculated with 1.0 mg/ml collagenase in Ca^2+-free solution (96.0 mM NaCl, 2.0 mM KCl, 1.0 mM MgCl2.6H2O and 5.0 mM HEPES, pH 7.5) at 25+2° C. for 2.0 h. The oocytes were washed in Ca^2+-free solution and transferred to ND96 solution (96.0 mM NaCl, 2.0 mM KCl, 1.0 mM CaCl2, 1.0 mM MgCl2.6H2O and 5.0 mM HEPES, pH 7.5). Defolliculated Xenopus oocytes (stage 1V and V) were injected with 25 ng of capped cRNA and incubated at 18° C. for 2-3 days in ND96 solution containing gentamicin (50 μg/ml) and 2.5 mM sodium pyruvate.
Inhibition study. […] The oocytes were solubilized with 5% (w/v) SDS and the radioactivity content determined using liquid scintillation counter (Aloka 3100; Aloka Co., Ltd. Tokyo, Japan). […]

The target of assay [3] is T1, hURAT1. In words: MDCK-hURAT1 data (Endou and Olkawa, 2009). Also on record: expressed in transfected cells. It counts as cell-based. The following applies: 8 versus 7, MDCK-hURAT1 data.
For assay [4], the target named is T1, hURAT1. Also on record: expressed in transfected cells; host or cells: Xenopus laevis oocytes injected with capped cRNA. The following applies: previous results of the applicants' laboratories; cited from earlier work.
The conditions of assay [5]: oral; 7 (100 mg/kg) versus 4 (300 mg/day) or 5 (1000 mg/day); cited from earlier work.

Turning to `CCc1cc2cc(O)cc(C(=O)c3cc(Br)c(O)c(Br)c3)c2o1` [Compound 44, (3,5-Dibromo-4-hydroxyphenyl)(2-ethyl-5-hydroxybenzofuran-7-yl)methanone], in assay [1], the IC50 was found to be 287 nM.

In turn, `CCc1oc2cc(O)ccc2c1C(=O)c1ccc(OC)cc1` [Compound 31, (2-Ethyl-6-hydroxybenzofuran-3-yl)(4-methoxyphenyl)methanone] had an IC50 in assay [1] of over 50000 nM.

`CCc1cc2cc(OC)cc(C(=O)c3cc(Br)c(O)c(Br)c3)c2o1` [Compound 43] gave an IC50 in assay [1] of 1440 nM.

As for `CCc1oc2c(OC)cccc2c1C(=O)c1ccc(OC)cc1` [Compound 19, (2-Ethyl-7-methoxybenzofuran-3-yl)(4-methoxyphenyl)methanone], in assay [1], the 14C-urate transport inhibition result is reported as “weak inhibition”.

With `CCc1oc2ccc(OC)cc2c1C(=O)c1ccc(OC)cc1` [Compound 14, (2-Ethyl-5-methoxybenzofuran-3-yl)(4-methoxyphenyl)methanone], the 14C-urate transport inhibition result in assay [1] was “weak inhibition”.

For `CCc1oc2ccccc2c1C(=O)c1cc(Br)c(OC)c(Br)c1` [Compound 85, (3,5-Dibromo-4-methoxyphenyl)(2-ethylbenzofuran-3-yl)methanone], the “combined % inhibition for hURAT1, hURAT2, and hURATv1” value in assay [2] is under 160%.

`CCc1oc2cc(O)ccc2c1C(=O)c1cc(Br)c(O)c(Br)c1` [Compound 8, (3,5-dibromo-4-hydroxyphenyl)(2-ethyl-6-hydroxy-benzofuran-3-yl)methanone] registered a fold difference in assay [3] of 5.7 fold. Besides, in assay [1], it took 138 nM to reach half-maximal inhibition (IC50). For the same compound, the hURAT1 inhibitor properties entry in assay [4] is given as “potent”.

In the case of `CCc1oc2ccccc2c1C(=O)c1cc(Br)c(O)c(Br)c1` [Compound 7, (3,5-Dibromo-4-hydroxyphenyl)(2-ethylbenzofuran-3-yl)methanone], the “physiological effect (lowers urate level)” value in assay [5] is on record as “greater physiological effect”. The hURAT1 inhibitor properties entry in assay [4] is on record as “potent”.

In turn, `CCc1oc2cc(O)ccc2c1C(=O)c1ccc(O)cc1` [Compound 32, (2-ethyl-6-hydroxybenzofuran-3-yl)(4-hydroxyphenyl)methanone] had an IC50 in assay [1] of 1100 nM.

In the case of `CCc1oc2cc(OC)ccc2c1C(=O)c1ccc(O)cc1` [Compound 30, (2-Ethyl-6-methoxybenzofuran-3-yl)(4-hydroxyphenyl)methanone], in assay [1], half-maximal inhibition (IC50) required 3900 nM.

In assay [1], `CCc1oc2ccccc2c1C(=O)c1ccc(O)cc1` [Compound 13, (2-Ethylbenzofuran-3-yl)(4-hydroxyphenyl)methanone, reference compound] showed an IC50 of 2800 nM.

In the case of `CCc1oc2ccccc2c1C(=O)c1ccc(OC)cc1` [Compound 12, (2-Ethylbenzofuran-3-yl)(4-methoxyphenyl)methanone], in assay [1], the 14C-urate transport inhibition entry is reported as “weak-to-no”.
